From ChEMBL document CHEMBL1772964, “Structural requirements of flavonoids for the adipogenesis of 3T3-L1 cells” (Bioorg Med Chem, 2011)

What was measured:
[1] = tested on: 3T3-L1; assay: Induction of insulin-stimulated 2-deoxy-D- 2,6-[3H]-glucose uptake in differentiated mouse 3T3L1 cells at 10 uM compound treated for 20 mins with insulin by liquid scintillation counting (reference value: 100.0 %); assay type: functional
[2] = tested on: 3T3-L1; assay: Induction of adipogenesis in mouse 3T3L1 cells assessed as increase in triglyceride level at 1 uM on day 8 relative to control; assay type: functional
[3] = tested on: 3T3-L1; assay: Induction of adipogenesis in mouse 3T3L1 cells assessed as increase in triglyceride level at 30 uM on day 8 relative to control; assay type: functional
[4] = tested on: 3T3-L1; assay: Induction of adipogenesis in mouse 3T3L1 cells assessed as increase in triglyceride level at 3 uM on day 8 relative to control; assay type: functional
[5] = tested on: 3T3-L1; assay: Induction of insulin-stimulated 2-deoxy-D- 2,6-[3H]-glucose uptake in differentiated mouse 3T3L1 cells at 30 uM compound treated for 20 mins with insulin by liquid scintillation counting (reference value: 100.0 %); assay type: functional
[6] = tested on: 3T3-L1; assay: Induction of adipogenesis in mouse 3T3L1 cells assessed as increase in triglyceride level at 10 uM on day 8 relative to control; assay type: functional
[7] = tested on: 3T3-L1; assay: Inhibition of insulin-stimulated 2-deoxy-D- 2,6-[3H]-glucose uptake in differentiated mouse 3T3L1 cells compound treated for 20 mins with insulin by liquid scintillation counting (reference value: 100.0 %); assay type: functional, cell-based
[8] = tested on: 3T3-L1; assay: Effect on adiponectin mRNA expression in mouse 3T3L1 cells at 30 uM on day 8 by RT-PCR relative to beta-actin mRNA expression; assay type: functional
[9] = tested on: 3T3-L1; assay: Effect on C/EBPdelta mRNA expression in mouse 3T3L1 adipocytes at 30 uM on day 8 by RT-PCR relative to beta-actin mRNA expression; assay type: functional
[10] = tested on: 3T3-L1; assay: Effect on C/EBPalpha mRNA expression in mouse 3T3L1 cells at 30 uM on day 8 by RT-PCR relative to beta-actin mRNA expression; assay type: functional
[11] = tested on: 3T3-L1; assay: Effect on PPARgamma2 mRNA expression in mouse 3T3L1 cells at 30 uM on day 8 by RT-PCR relative to beta-actin mRNA expression; assay type: functional
[12] = tested on: 3T3-L1; assay: Induction of adiponectin protein secretion in mouse 3T3L1 cells at 1 uM on day 8 by ELISA relative to control; assay type: functional
[13] = tested on: 3T3-L1; assay: Induction of insulin-stimulated 2-deoxy-D- 2,6-[3H]-glucose uptake in mouse 3T3L1 cells chronically treated at 1 uM by liquid scintillation counting (reference value: 100.0 %); assay type: functional
[14] = tested on: 3T3-L1; assay: Induction of adipogenesis in mouse 3T3L1 cells assessed as increase in triglyceride level on day 8; assay type: functional, cell-based
[15] = tested on: 3T3-L1; assay: Effect on PPARgamma2 mRNA expression in mouse 3T3L1 cells at 3 uM on day 8 by RT-PCR relative to beta-actin mRNA expression; assay type: functional
[16] = tested on: 3T3-L1; assay: Effect on aP2 mRNA expression in mouse 3T3L1 cells at 30 uM on day 8 by RT-PCR relative to beta-actin mRNA expression; assay type: functional
[17] = tested on: 3T3-L1; assay: Effect on C/EBPdelta mRNA expression in mouse 3T3L1 cells at 3 uM on day 8 by RT-PCR relative to beta-actin mRNA expression; assay type: functional
[18] = tested on: 3T3-L1; assay: Effect on C/EBPbeta mRNA expression in mouse 3T3L1 cells at 3 uM on day 8 by RT-PCR relative to beta-actin mRNA expression; assay type: functional
[19] = tested on: 3T3-L1; assay: Effect on GlUT4 mRNA expression in mouse 3T3L1 cells at 3 uM on day 8 by RT-PCR relative to beta-actin mRNA expression; assay type: functional
[20] = tested on: 3T3-L1; assay: Induction of insulin-stimulated 2-deoxy-D- 2,6-[3H]-glucose uptake in mouse 3T3L1 cells chronically treated at 30 uM by liquid scintillation counting (reference value: 100.0 %); assay type: functional
[21] = tested on: 3T3-L1; assay: Effect on adiponectin mRNA expression in mouse 3T3L1 cells at 3 uM on day 8 by RT-PCR relative to beta-actin mRNA expression; assay type: functional
[22] = tested on: 3T3-L1; assay: Effect on GlUT4 mRNA expression in mouse 3T3L1 cells at 30 uM on day 8 by RT-PCR relative to beta-actin mRNA expression; assay type: functional
[23] = tested on: 3T3-L1; assay: Effect on C/EBPbeta mRNA expression in mouse 3T3L1 cells at 10 uM on day 8 by RT-PCR relative to beta-actin mRNA expression; assay type: functional
[24] = tested on: 3T3-L1; assay: Effect on aP2 mRNA expression in mouse 3T3L1 cells at 10 uM on day 8 by RT-PCR relative to beta-actin mRNA expression; assay type: functional
[25] = tested on: 3T3-L1; assay: Effect on C/EBPalpha mRNA expression in mouse 3T3L1 cells at 10 uM on day 8 by RT-PCR relative to beta-actin mRNA expression; assay type: functional
[26] = tested on: 3T3-L1; assay: Effect on C/EBPdelta mRNA expression in mouse 3T3L1 cells at 10 uM on day 8 by RT-PCR relative to beta-actin mRNA expression; assay type: functional
[27] = tested on: 3T3-L1; assay: Effect on C/EBPbeta mRNA expression in mouse 3T3L1 cells at 30 uM on day 8 by RT-PCR relative to beta-actin mRNA expression; assay type: functional
[28] = tested on: 3T3-L1; assay: Induction of adiponectin protein secretion in mouse 3T3L1 cells at 30 uM on day 8 by ELISA relative to control; assay type: functional
[29] = tested on: 3T3-L1; assay: Induction of adiponectin protein secretion in mouse 3T3L1 cells at 10 uM on day 8 by ELISA relative to control; assay type: functional
[30] = tested on: 3T3-L1; assay: Effect on GlUT4 mRNA expression in mouse 3T3L1 cells at 10 uM on day 8 by RT-PCR relative to beta-actin mRNA expression; assay type: functional
[31] = tested on: 3T3-L1; assay: Induction of adipogenesis in mouse 3T3L1 cells assessed as increase in triglyceride level at 0.3 uM on day 8 relative to control; assay type: functional
[32] = tested on: 3T3-L1; assay: Induction of insulin-stimulated 2-deoxy-D- 2,6-[3H]-glucose uptake in mouse 3T3L1 cells chronically treated at 10 uM by liquid scintillation counting (reference value: 100.0 %); assay type: functional
[33] = tested on: 3T3-L1; assay: Effect on PPARgamma2 mRNA expression in mouse 3T3L1 cells at 10 uM on day 8 by RT-PCR relative to beta-actin mRNA expression; assay type: functional
[34] = tested on: 3T3-L1; assay: Effect on adiponectin mRNA expression in mouse 3T3L1 cells at 10 uM on day 8 by RT-PCR relative to beta-actin mRNA expression; assay type: functional
[35] = tested on: 3T3-L1; assay: Induction of adiponectin protein secretion in mouse 3T3L1 cells at 3 uM on day 8 by ELISA relative to control; assay type: functional
[36] = tested on: 3T3-L1; assay: Effect on C/EBPalpha mRNA expression in mouse 3T3L1 cells at 3 uM on day 8 by RT-PCR relative to beta-actin mRNA expression; assay type: functional
[37] = tested on: 3T3-L1; assay: Effect on aP2 mRNA expression in mouse 3T3L1 cells at 3 uM on day 8 by RT-PCR relative to beta-actin mRNA expression; assay type: functional

Structure (SMILES) | Activity [1] [%] | Activity [2] [%] | Activity [3] [%] | Activity [4] [%] | Activity [5] [%] | Activity [6] [%] | Ratio [8] | Ratio [9] | Ratio [10] | Ratio [11] | Activity [12] [%] | Activity [13] [%] | Activity [14] | Ratio [15] | Activity [20] [%] | Activity [28] [%] | Activity [29] [%] | Activity [31] [%] | Activity [32] [%] | Activity [35] [%] | other results
O=c1c(O)c(-c2ccc(O)cc2)oc2cc(O)cc(O)c12 [KAEMPFEROL] | 30.3 | 6.2 | 3.7 | 5.9 | 12.7 | 0.3 | – | – | – | – | – | – | – | – | – | – | – | – | – | – | inhibition [7]: Dose-dependent effect
COc1ccc(-c2oc3cc(OC)cc(OC)c3c(=O)c2OC)cc1 [TETRAMETHYLKAEMPFEROL] | 62.7 | 19.1 | 33.7 | 24.1 | 46 | 28.2 | 2.9 | 0.77 | 1.82 | 2.11 | 144.6 | 146.5 | Dose-dependent effect | 1.67 | 135.8 | 136.7 | 164.7 | 10.1 | 163.1 | 149.5 | Ratio [16]: 2.24; Ratio [17]: 0.89; Ratio [18]: 1.34; Ratio [19]: 2.38; Ratio [21]: 1.81; Ratio [22]: 2.61; Ratio [23]: 1.89; Ratio [24]: 2.02; Ratio [25]: 2.08; Ratio [26]: 1.23; Ratio [27]: 3.14; Ratio [30]: 2.54; Ratio [33]: 1.81; Ratio [34]: 2.05; Ratio [36]: 1.88; Ratio [37]: 1.53
COc1ccc(-c2oc3cc(OC)cc(O)c3c(=O)c2OC)cc1 | 69.8 | 21.7 | 23 | 20.8 | 60.1 | 22.5 | – | – | – | – | 119.7 | 108.5 | Dose-dependent effect | – | 113.6 | 131.9 | 123.3 | 9.3 | 118.9 | 125.3 | –
COc1cc(OC)c2c(=O)c(OC)c(-c3ccc(OC)c(OC)c3)oc2c1 | 65.5 | 17.7 | 27.4 | 26.2 | 35.9 | 27 | 2.59 | 2.34 | 1.38 | 2.42 | 137.8 | 129.9 | Dose-dependent effect | 1.84 | 127.3 | 128.1 | 131.4 | 9.4 | 152.9 | 156.8 | Ratio [16]: 2.1; Ratio [17]: 1.54; Ratio [18]: 1.73; Ratio [19]: 2.01; Ratio [21]: 1.67; Ratio [22]: 3.62; Ratio [23]: 3.01; Ratio [24]: 1.59; Ratio [25]: 1.5; Ratio [26]: 1.93; Ratio [27]: 3.82; Ratio [30]: 2.25; Ratio [33]: 1.99; Ratio [34]: 1.91; Ratio [36]: 1.79; Ratio [37]: 1.34
